Data reported in patent publication US20090076050A1, “SYNERGISTIC TUMOR-KILLING EFFECT OF RADIATION AND BERBERINE COMBINED TREATMENT IN LUNG CANCER” (CHUNG SHAN MEDICAL U., priority 2007, published 2009).

Legend:
[1] = tested on: A549 cells; test: apoptosis hallmarks: DAPI stain, DNA electrophoresis, immunoblotting of caspase-3 and PARP; type: cell-based, human; conditions: 24 h
Experimental: The role of apoptosis in the sensitivity of A549 cells to IR induced by berberine was further clarified by DAPI stain. DNA extraction and electrophoresis on agarose gel were carried out as described previously (Solary E, et al. Therapie 2001; 56:511-18). After the indicated treatments, cells were fixed with 3 mL of 4% paraformaldehyde. To stain the cells, 500 μL of a 0.5 μg/mL chilled solution of DAPI (Invitrogen) stain was added and allowed to sit for 5 min. The cells were then rinsed with PBS solution and counted under a fluorescent microscope. For positive control of DNA fragmentation and DAPI stain, A549 cells were treated with 30 μM etoposide for 24 h. […] This contention was further confirmed by the lack of apoptotic DNA fragmentation and activation of caspase-3 and poly-(ADP-ribose) polymerases (PARP) as analyzed by DNA electrophoresis and immunoblotting (FIG. 3B, 3C). After the indicated treatment, the resultant supernatants were separated in 12%˜18% polyacrylamide gels. The blot was incubated with a polyclonal antibody against LC3 (gift from T. Yoshimori), PARP, caspase-3, bcl-2, beclin-1 and β-actin (Santa Cruz biotechnology, USA) for 2 h, and then with an appropriate peroxidase-conjugated secondary antibody (Sigma) for 1 h at 37° C.

[2] = tested on: A549 cells; test: electron microscopic analysis of autophagy; type: cell-based, human; conditions: IR and 5.0 μM berberine, 24 h
Experimental: Autophagic cell death has been recognized as programmed cell death type II, it has been detected in a variety of cancer cells treated with radiation or chemotherapy. Therefore, it had been examined whether IR treatment combined with berberine induced autophagic cell death in A549 cells by electron microscopic analysis (FIG. 4A). Cells were harvested by trypsinization, and fixed with 2% glutaraldehyde, 4% paraformaldehyde and 1% tannic acid in 0.1 mol/L cacodylate buffer, pH 7.4, for 25 h. The cells were stained with an osmium-thiocarbohydrazide-osmium (OTO). After staining, the cells were dehydrated in a graded series of 70% to 100% EtOH and then immersed serially with 1:1 hexamethyldisilazane and absolute ethanol. […] Autophagy is characterized by the development of AVOs, which is measured by vital staining of acridine orange. […] To quantitate acidic vesicular organelles, Stained cells were collected for the FACScan (Becton Dickinson, San Jose, Calif.) using CellQuest software (Becton Dickinson). Acridine orange-positive cells with bright red fluorescence were detected among A549 cells 24 h after co-treated with berberine and IR (6 Gy), whereas they were sparse among non-treated cells or irradiated cells (FIG. 4B). […]

[3] = tested on: A549 cells; test: acridine orange staining of acidic vesicular organelles (microscopy and FACS); type: cell-based, human; conditions: for proportion of acridine orange-positive cells: 24 h, IR alone 12.5%
Experimental: Autophagic cell death has been recognized as programmed cell death type II, it has been detected in a variety of cancer cells treated with radiation or chemotherapy. Therefore, it had been examined whether IR treatment combined with berberine induced autophagic cell death in A549 cells by electron microscopic analysis (FIG. 4A). Cells were harvested by trypsinization, and fixed with 2% glutaraldehyde, 4% paraformaldehyde and 1% tannic acid in 0.1 mol/L cacodylate buffer, pH 7.4, for 25 h. The cells were stained with an osmium-thiocarbohydrazide-osmium (OTO). After staining, the cells were dehydrated in a graded series of 70% to 100% EtOH and then immersed serially with 1:1 hexamethyldisilazane and absolute ethanol. One micrometer thin sections were cut, and the gels were coated with 500 Å of gold in a JEOL Vacuum sputter coater and viewed in a JEOL […] electron microscope with scanning attachment (JEOL, Tokyo, Japan). […] Autophagy is characterized by the development of AVOs, which is measured by vital staining of acridine orange. Acridine orange (Polysciences, Warrington, Pa.) was added to cells at a final concentration of 1 μg/mL for a period of 15 min. Pictures were taken with a fluorescent microscope (Nikon TE-300) equipped with a 490-nm band-pass blue excitation filters, a 500-nm dichroic mirror, and a 515-nm-long pass-barrier filter. To quantitate acidic vesicular organelles, Stained cells were collected for the FACScan (Becton Dickinson, San Jose, Calif.) using CellQuest software (Becton Dickinson). Acridine orange-positive cells with bright red fluorescence were detected among A549 cells 24 h after co-treated with berberine and IR (6 Gy), whereas they were sparse among non-treated cells or irradiated cells (FIG. 4B). […] FIG. 4C).

[4] = tested on: beclin-1; test: immunohistochemistry of beclin-1 in xenograft; type: in vivo, C57BL/6 mice; conditions: co-treatment groups (berberine + IR)
Experimental: The application of the additive cytotoxicity of IR combined with berberine in cancer treatment was further evidenced in an in vivo Lewis lung carcinoma (LLC) model in mice (Camphausen K, et al. Cancer Res 2001; 61:2207-11). Male C57BL/6 mice aged 4-6 weeks (National Taiwan University Animal Center, Taiwan) were used. To form a tumor xenograft, Lewis lung cells (2×10^6) were injected s.c. into the right hind limb. Animals were randomized into six groups: control, irradiation (IR) alone, berberine (1.0, 2.0 mg/kg) alone, and IR combined with berberine (1.0, 2.0 mg/kg). For tumor irradiation, mice were immobilized in a customized harness that exposed the right hind leg while shielding the remainder of the body by 3.5 cm of lead. Mice were exposed to a single dose of 8 Gy. […] To obtain tumor growth curves, three orthogonal tumor diameters were measured every 4-day intervals with a vernier caliper, and the mean values were calculated. […] Primary tumor growth delay was measured by calipers in two dimensions, and the volumes were calculated according to the formula: tumor volume=(width) 2×length×0.52. […] The tumor volume at the primary site of each group was measured before treatment, and the average tumor volume was designated as T0. When the animals were sacrificed at the end of experiment, the xenografts were removed, and the tumor volume was determined and presented as fold of T0. […]

SMILES: COc1ccc2cc3[n+](cc2c1OC)CCc1cc2c(cc1-3)OCO2 [berberine, Berberine]
- apoptotic DNA fragmentation and activation of caspase-3 and PARP ([1]; berberine with IR, DNA electrophoresis and immunoblotting (FIG. 3B, 3C)): lack
- number of apoptotic cells (DAPI stain) ([1]; co-treatment of berberine (>5.0 μM) with IR (6 Gy)): increased only slightly
- autophagic vacuoles by electron microscopy [2]: Numerous empty vacuoles and autophagic vacuoles
- proportion of acridine orange-positive cells ([3]; 6 Gy irradiation combined with 5.0 μM berberine): 50.3%
- proportion of acridine orange-positive cells ([3]; 6 Gy irradiation combined with 10 μM berberine): 62.6%
- acridine orange-positive cells with bright red fluorescence (microscopy) ([3]; 24 h after co-treatment with berberine and IR (6 Gy)): detected
- beclin-1 protein expression in xenograft [4]: remarkable increased
